Measurements from patent publication US20130012443A1, “METHODS OF TREATMENT OF CENTRAL NERVOUS SYSTEM HEMORRHAGE USING PROTOPORPHYRIN IX-FE COMPOUNDS” (priority 2011, published 2013).
Entries after “also recorded” stand apart in the source; their conditions may differ.

Assays:
heme oxygenase-1 (HO-1) = assay: HO-1 expression in mouse brain by immunoblotting; format: in vivo; conditions: 26 mg/kg i.p. for 1 or 2 days, v. saline; for HO-1 expression in cortex (CTX) / HO-1 expression in striatum (STR): 24 hours after last dose, FIG. 4
Description: Mice received 26 mg/kg hemin i.p for 1 or 2 days, or an equal volume of saline. Striatal HO-1 expression was assessed 24 hours after the last hemin dose. Actin levels provide a gel-loading control. *P<0.05 v. expression in saline-treated controls, n=4/conditon.
Mice received 26 mg/kg hemin or heme arginate i.p for 1 or 2 days, or an equal volume of saline. HO-1 expression was assessed 24 hours after last dose. Actin serves as a control.
The response elicited by protoporphyrin IX-Fe compounds was investigated by administering 26 mg/kg hemin, or an equal volume of saline for 1 or 2 days via intraperitoneal injection. Expression of heme oxygenase-1 (HO-1) in striatal cells was assessed 24 hours after the last hemin dose. Four mice were used for each experimental group. Actin was used as a gel-loading control. HO-1 expression was quantified by immunoblotting as previously described (Neuropharmacology 2011 60:423-431); band density was analyzed using Kodak 1D software (Kodak, Rochester, N.Y.) (FIG. 3).
The effect of protoporphyrin IX-Fe compounds on HO-1 expression in nervous tissue was further investigated using heme arginate and examining the response in the cortex in addition to the striatum. Mice received 26 mg/kg hemin or heme arginate for 1 or 2 days, or an equal volume of saline. All treatments were administered intraperitoneally. HO-1 expression was quantified by immunoblotting as previously described (Neuropharmacology 2011 60:423-431).

[1] = bound to albumin; cited from earlier work
striatal cells = assay: Striatal cell viability by MTT assay after ICH; format: in vivo, mice; conditions: v. vehicle
Description: Intracerebral hemorrhage was modeled in 2-3 month old mice (5-6/condition) by striatal injection of autologous blood (25 μl) or collagenase (0.014 units), followed 1 or 3 hours later by 4 mg/kg hemin i.p. (repeated 24 h later) or vehicle. Five days after ICH, striatal cell viability was quantified by MTT assay. *P<0.05, **P<0.01, hemin treated v. vehicle-treated controls.
Whether protoporphyrin IX-Fe compounds could reduce hemorrhage-induced cell death in nervous tissues was investigated using the same mouse model of ICH. Intracerebral hemorrhage was modeled in 2-3 month old mice (5-6/condition) by striatal injection of autologous blood (25 μl) or collagenase (0.014 units), followed 1 or 3 hours later by 4 mg/kg hemin i.p. (repeated 24 h later) or vehicle. Five days after ICH, striatal cell viability was quantified by MTT assay (Chen et al., J Neurosurg 2011 114:1159-67) after striatal cell dissociation (FIG. 2). ICH was also modeled by striatal injection of […] autologous blood, followed by hemin (26 mg/kg) or vehicle treatment at 3 and 27 hours after ICH.

[2] = system: mouse model of intracerebral hemorrhage (ICH); assay: Evan's blue leakage (blood-brain barrier disruption) after ICH induced by collagenase injection; format: in vivo, mice; conditions: 26 mg/kg 1 or 3 hours after collagenase and again 24 h later, v. vehicle
[3] = system: mouse model of intracerebral hemorrhage (ICH); assay: Evan's blue leakage (blood-brain barrier disruption) after ICH induced by striatal autologous blood injection; format: in vivo, mice
Description: Mice were treated with 26 mg/kg hemin i.p. 1 hour later, as a one-time dose, or repeated in 24 hours; controls received vehicle i.p. only. Evan's blue leakage into the striatal parenchyma, a marker of blood-brain barrier disruption, was quantified at 3 days. […] Sham mice received anesthesia and needle trauma only. *P<0.05, **P<0.01, hemin treated v. vehicle-treated controls.
The effect of protoporphyrin IX-Fe compounds on subsequent exposure of nervous tissue to toxic doses of hemin was investigated. A mouse model of intracerebral hemorrhage (ICH) was used. ICH was induced in mice (6-7/condition, 9-10 weeks old) by injecting 25 μl autologous blood (FIG. 1A) into the right striatum. One hour after hemorrhage induction, mice were treated with (a) hemin at 26 mg/kg as a one-time dose, (b) hemin at 26 mg/kg at 1 hour after induction and then repeated at 25 hours after induction, or (c) sterile saline solution only. […] Mice were then treated with vehicle or hemin 1 hour later, with repeated dose 24 hours later. All treatments were administered via intraperitoneal injection. Three days after hemorrhage induction, brains were harvested after Evans blue injection, and slices were examined for Evan's blue fluorescence. […] Evan's blue leakage into the striatal parenchyma was quantified as a marker of blood-brain barrier disruption (FIGS. 1A-1B).

HO-1 = conditions: low doses; cited from earlier work

## heme arginate
Heme oxygenase-1 (HO-1)
  HO-1 expression in cortex (CTX): increases HO-1 expression
  HO-1 expression in striatum (STR): increases HO-1 expression

## chloride salt of protoporphyrin IX-Fe^3+ [hemin]
Heme oxygenase-1 (HO-1)
  HO-1 expression in cortex (CTX): increases HO-1 expression
  HO-1 expression in striatum (STR): increases HO-1 expression
Heme oxygenase-1 (HO-1); 24 hours after the last dose, FIG. 3
  Striatal HO-1 expression: increased expression of HO-1; also recorded: increases expression of the protective enzyme heme oxygenase-1 (HO-1)
[1]
  blood vessel inflammation and damage (phlebitis): less blood vessel inflammation and damage (phlebitis)
  stability: more stable
Striatal cells; autologous blood (25 μl) or collagenase (0.014 units), 4 mg/kg i.p. 1 or 3 hours later, repeated 24 h later, five days after ICH, 4 mg/kg
  striatal cell viability (MTT assay): increased striatal cell viability; also recorded: increases peri-hematomal cell viability
Striatal cells; autologous blood, 26 mg/kg at 3 and 27 hours after ICH, data not shown
  MTT staining intensity / tissue viability: increased tissue viability
[2]
  Evan's blue leakage into the striatal parenchyma, a marker of blood-brain barrier disruption: decreases blood-brain barrier disruption
[3]; striatal autologous blood injection, 26 mg/kg i.p. 1 hour later, one-time dose or repeated in 24 hours, quantified at 3 days, v. vehicle, 26 mg/kg
  Evan's blue leakage into the striatal parenchyma, a marker of blood-brain barrier disruption: attenuated blood-brain barrier disruption following simulated hemorrhage in a dose-dependent manner; also recorded: decreases blood-brain barrier disruption
[3]; three days after hemorrhage induction, DsRed filter, data not shown
  Evan's blue fluorescence in brain slices: Reduced fluorescence
HO-1
  HO-1 expression in cultured cells: could induce HO-1 expression
